Results on 20 molecules are retold here after patent publication US8633212B2, “Inhibitors of beta-secretase” (Vitae Pharmaceuticals, Inc., priority 2009, dated 2014).

Read-outs that look alike come from different tables or passages of the source. Bounds are passed on as bounds.

Assay [1] deals with H4 neuroglioma cell line stably expressing APP with the KM-NL Swedish mutation (H4-APPsw); soluble Amyloid Beta 1-40 (Aβ 1-40) (Homo sapiens (Human), UniProt P56817). Description: BACE cell assay: soluble Aβ 1-40 in culture media of H4-APPsw cells (AlphaLISA/ELISA). The settings on record: in vitro cell activity; H4-APPsw cells treated overnight, secreted Aβ 1-40 in culture media. It is filed as cell-based. The method, then: H4 neuroglioma cell line that stably expresses Amyloid Precursor Protein (APP) containing the KM-NL Swedish mutation (H4-APPsw) was generated. For the assay, cells are treated overnight in the presence of inhibitor and the culture media are subjected to ELISA analysis of soluble Amyloid Beta 1-40 (Aβ 1-40).
Sequence of H4 neuroglioma cell line stably expressing APP with the KM-NL Swedish mutation (H4-APPsw); soluble Amyloid Beta 1-40 (Aβ 1-40) (P56817 46-501 limits assumed, change not shown): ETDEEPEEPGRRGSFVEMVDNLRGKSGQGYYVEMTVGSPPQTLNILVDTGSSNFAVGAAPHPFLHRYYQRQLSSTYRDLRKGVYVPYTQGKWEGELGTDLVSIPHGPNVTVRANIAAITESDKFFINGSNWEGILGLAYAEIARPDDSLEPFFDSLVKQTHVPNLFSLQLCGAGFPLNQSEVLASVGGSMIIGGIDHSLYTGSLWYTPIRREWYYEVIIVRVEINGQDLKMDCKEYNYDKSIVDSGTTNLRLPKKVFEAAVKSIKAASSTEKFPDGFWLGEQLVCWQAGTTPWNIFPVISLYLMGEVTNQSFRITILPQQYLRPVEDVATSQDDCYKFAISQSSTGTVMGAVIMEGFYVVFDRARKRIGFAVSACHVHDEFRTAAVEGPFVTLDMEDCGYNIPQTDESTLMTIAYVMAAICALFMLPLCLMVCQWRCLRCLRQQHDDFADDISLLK
Generation and Maintenance of H4-APPsw Cell Line
H4 neuroglioma cell line was cultured in DMEM with 10% FBS and 1% penicillin/streptomycin (Culture Medium) at 37° C., 5% CO2. […] 24 hrs after transfection, the cells were replaced into three new plates (150 mm) in fresh Culture Medium with 250 ug/mL Zeocin. […] The levels of APPsw expression were analyzed by immunoblotting and the production of Aβ 1-40 was detected by ELISA of culture supernatants. The selected clones are maintained in Culture Medium with 250 μg/mL Zeocin and routinely split in 3-4 days to maintain 20-80% confluence.
Final Assay Conditions (96-Well Plate)
Split H4-APPsw cells in Culture Medium and culture overnight such that cells will be ˜80% confluent next morning.
Create Compound Dilution Plate.
After determining the desired final concentration of compound to be tested, create a 500× dilution plate. Add DMSO, but not inhibitor, to each well of Column 1. […] Add compounds of interest at 500× desired final concentration to wells A3-A10. […] Dilute contents of Row A 1:3 in Row B, then continue through Rows C-H.
Add 4 μL 5 mM control compound to Media Plate wells A1-D1 for determination of full inhibition.
With a multichannel pipettor, mix each well of Media Plate several times to insure homogeneity. […] Next, place Medium Plate and Cell Plate in the incubator.
Trypsinize and count H4-APPsw cells. Dilute cells 6×10^5 cells/mL in Culture Medium and remove Cell Plate from incubator. Vortex cells to homogeneity, then using a multichannel repeating pipettor, add 100 μL cell suspension to Cell Plate, adding cells from Row H to Row A. Place Cell Plate in incubator.
Change media in Cell Plate.
After 5 h, check Cell Plate by microscope to insure cells are attached. In culture hood, remove media from Cell Plate using multichannel repeating pipettor. Add 100 μl Culture Medium to each well. Remove Media Plate from incubator and mix with pipettor as previous. Add 100 μl from each well of Media Plate to corresponding well in Cell Plate. Place Cell Plate in incubator overnight.
Perform ELISA to determine levels of secreted Aβ 1-40.
After 16 h incubation, spin Cell Plate for 8 min at 1200 rpm. The primary reading of Aβ 1-40 levels is done using PerkinElmer AlphaLISA technology. Follow the manufacturer's protocol for performing AlphaLISA in a white ½ area Optiwell plate using Row 12 for peptide standard (1:2 dilutions, starting at 15 ng/ml). Data are acquired using PerkinElmer Fusion-Alpha FP-HT, Alpha protocol (Count Time 0.6s, Count Time Ratio 30%:70%).
Export data from Fusion using Columnar Report format into a separate file for each plate. Upload data into Activity Base using RIA-DOSE-RESPONSE protocol (Version 1). Data from at least eight doses were fitted to a four parameter logistical model using XLfit software to determine potency.

For assay [2], the target named is truncated human beta-secretase (residues 1-458, His6-tagged at the C-terminus) (Homo sapiens (Human), UniProt P56817). Description: BACE enzyme assay (fluorescence quench assay, Example 434A). In kind it is biochemical. The settings on record: read-out: IC50.
Sequence of truncated human beta-secretase (residues 1-458, His6-tagged at the C-terminus) (P56817 22-458): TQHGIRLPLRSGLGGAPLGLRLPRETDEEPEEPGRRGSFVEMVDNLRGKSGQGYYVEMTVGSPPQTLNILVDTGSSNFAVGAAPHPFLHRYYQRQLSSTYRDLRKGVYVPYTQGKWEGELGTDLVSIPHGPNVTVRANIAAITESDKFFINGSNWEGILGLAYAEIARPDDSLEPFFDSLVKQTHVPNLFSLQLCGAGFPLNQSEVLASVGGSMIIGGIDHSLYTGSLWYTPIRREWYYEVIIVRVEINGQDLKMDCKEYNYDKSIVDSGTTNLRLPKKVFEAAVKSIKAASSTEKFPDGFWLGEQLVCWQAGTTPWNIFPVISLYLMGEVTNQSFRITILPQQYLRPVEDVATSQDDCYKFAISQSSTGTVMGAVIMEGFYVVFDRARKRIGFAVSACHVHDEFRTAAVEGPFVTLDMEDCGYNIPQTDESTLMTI
Where [3] appears, read: footnote a: protocols described in Example 434A.

In the case of `CO[C@H]1CC[C@]2(CC1)Cc1ccc(-c3cccc(C#N)c3)cc1C21CC(=O)N(C)C(N)=N1` (stereo partly drawn) [Compound 58, 3-(2″-amino-1′″-methyl-6″-oxo-5″,6″-dihydro-1″H-spiro[spiro[2,3-dihydro-indene-2,1′-(trans-4-methoxycyclohexane)]-1,4′-pyrimidine]-6-yl)benzonitrile], the half-inhibitory concentration (IC50) in assay [1] is below 100 nM; in assay [2] it was 970 nM.
In the case of `CN1OC2(N=C1N)c1cc(-c3cccc(C#N)c3)ccc1CC21CCC(F)(F)CC1` (stereo not shown) [Compound 44], the figures for the half-inhibitory concentration (IC50) in assay [1] and in assay [2] (setting [3]) were below 5000 nM and 189 nM, respectively.
In the same order, the values of `CN1OC2(N=C1N)c1cc(Cl)ccc1CC21CCc2ccccc2CC1` (stereo not shown) [Compound 30] are below 5000 nM and 61.6 nM.
On to `CN1OC2(N=C1N)c1cc(-c3cccc(C#N)c3)ccc1CC21CCCc2ccccc2C1` (stereo not shown) [Compound 46], for which the IC50 in assay [1] was below 10000 nM; in assay [2] (setting [3]), 293 nM.
For the molecule `COC1CCC2(CC1)Cc1ccc(-c3cc(C)cc(C)c3)cc1C21N=C(N)N(C)O1` (stereo not shown) [Compound 19], the IC50 is below 500 nM in assay [1] and 14.6 nM in assay [2] (setting [3]).
In the same order, the values of `CN1OC2(N=C1N)c1cc(-c3cccc(C#N)c3)ccc1CC21C=CC(c2ccccc2)C1` (stereo not shown) [Compound 47] are below 10000 nM and 295 nM.
With `CN1OC2(N=C1N)c1cc(-c3cccc(C#N)c3)ccc1CC21CCc2cc(F)ccc2C1` (stereo not shown) [Compound 43], the IC50 in assay [1] is below 5000 nM; in assay [2], 178 nM.
Take `CN1OC2(N=C1N)c1cc(-c3cccc(C#N)c3)ccc1CC21CCc2c(F)cccc2C1` (stereo not shown) [Compound 54]: the concentration for half-maximal inhibition (IC50) was below 5000 nM in assay [1] and 618 nM in assay [2] (setting [3]).
In the same order, the values of `COC1CCC2(CC1)Cc1ccc(-c3cc(F)cc(Cl)c3)cc1C21N=C(N)N(C)O1` (stereo not shown) [Compound 1] are below 100 nM and 2.6 nM.
For `COC1CCC2(CC1)Cc1ccc(-c3cccc(C(F)(F)F)c3)cc1C21N=C(N)N(C)O1` (stereo not shown) [Compound 20], in that order: below 500 nM and 18.7 nM.
`COC1CCC2(CC1)Cc1ccc(-c3cccnc3)cc1C21CC(=O)N(C)C(N)=N1` (stereo not drawn) [Compound 59, 2″-amino-1′″-methyl-6-(pyridin-3-yl)-1″H-spiro[spiro[2,3-dihydro-indene-2,1′-(trans-4-methoxycyclohexane)]-1,4′-pyrimidin]-6″(5″H)-one]: the IC50 is below 500 nM in assay [1] and 1550 nM in assay [2].
As for `COC1CCC2(CC1)Cc1ccc(-c3cccc(C#N)c3)cc1C21N=C(N)N(C)O1` (stereo not shown) [Compound 25], the figures for the concentration for half-maximal inhibition (IC50) in assay [1] and in assay [2] (setting [3]) were below 100 nM and 26.2 nM, respectively.
Consider `COC1CCC2(CC1)Cc1ccc(C#CC3CC3)cc1C21N=C(N)N(C)O1` (stereo not shown) [Compound 3], for which the IC50 was below 100 nM in assay [1] and 4.5 nM in assay [2] (setting [3]).
Consider `CO[C@H]1CC2(Cc3ccc(-c4cccc(C#N)c4)cc3C23N=C(N)N(C)O3)C[C@H]1OC` (stereo partly shown) [Compound 57], for which the IC50 in assay [1] is below 5000 nM; in assay [2] (setting [3]), 936 nM.
On to `COC1CCC2(CC1)Cc1ccc(-c3cc(F)cc(Cl)c3)cc1C21CC(=O)N(C)C(N)=N1` (stereo not drawn) [Compound 42, 2″-amino-1′″-methyl-6-(3-chloro-5-fluorophenyl)-1″H-spiro[spiro[2,3-dihydro-indene-2,1′-(trans-4-methoxycyclohexane)]-1,4′-pyrimidin]-6″(5″H)-one], for which the values for the half-maximal inhibitory concentration (IC50) in assay [1] and in assay [2] were below 100 nM and 173 nM, respectively.
For `CN1OC2(N=C1N)c1cc(-c3cccc(C#N)c3)ccc1CC21Cc2ccccc2C1` (stereo not shown) [Compound 40], the half-inhibitory concentration (IC50) in assay [1] was below 5000 nM; in assay [2] (setting [3]), 160 nM.
With `CN1OC2(N=C1N)c1cc(Br)ccc1CC21CCc2ccccc2CC1` (stereo not shown) [Compound 31], the IC50 in assay [1] was below 5000 nM; in assay [2], 64 nM.
Turning to `CN1OC2(N=C1N)c1cc(-c3cccc(C#N)c3)ccc1CC21CCCC1` (stereo not shown) [Compound 50], the IC50 in assay [1] was below 1000 nM; in assay [2] (setting [3]), 443 nM.
Turning to `CN1OC2(N=C1N)c1cc(-c3cccc(C(F)(F)F)c3)ccc1CC21CCc2ccccc2CC1` (stereo not shown) [Compound 39], the IC50 was below 10000 nM in assay [1] and 158 nM in assay [2].
With `CC1=C(C)CC2(CC1)Cc1ccc(-c3cccc(C#N)c3)cc1C21N=C(N)N(C)O1` (stereo not shown) [Compound 41], the half-maximal inhibitory concentration (IC50) is below 5000 nM in assay [1] and 161 nM in assay [2] (setting [3]).

As usually defined, the IC50 is the concentration at which inhibition is half-maximal.
